Patent US20220289794A1, “SYNTHETIC ANTIMICROBIAL PEPTIDES” (priority 2019, published 2022)
Values after ≈ are worked out from the molar mass of the structure shown. Non-standard residues stand in square brackets, D forms with d. Residues, ends and D or L forms follow the SMILES beside them. dDip = N[C@@H](C(=O)O)C(c1ccccc1)c1ccccc1; 2Nal = N[C@@H](Cc1ccc2ccccc2c1)C(=O)O; d2Nal = N[C@H](Cc1ccc2ccccc2c1)C(=O)O

What was measured:
[1] = system: Methicillin-resistant Staphylococcus aureus MRSA (ATCC BAA-1556); details: ATCC BAA-1556
[2] = system: S. aureus ATCC 29213; details: ATCC 29213
[3] = system: Pseudomonas aeruginosa (ATCC 27883); details: ATCC 27883
[4] = system: Escherichia coli (ATCC 25922); details: ATCC 25922
[5] = in vitro; details: human, fresh human red blood cells (washed), pH 7.4
Description: Hemolytic Assay. We investigated the hemolytic effect (hemolytic assay) of the compounds on fresh human red blood cells to determine the cytotoxicity of the compounds. The hemolytic assay was conducted by serial dilution using 1% Triton X, 0.2% Triton X and PBS buffer pH 7.4 as controls. […] 3 mL of the fresh blood sample was washed severally by adding about 10 mL PBS buffer pH 7.4 and centrifuge at 4000 G until the supernatant was cleared. The washed blood sample was diluted to 20 mL volume to be used in the study. An aliquot of 190 μL blood sample was added to 10 μL compound sample in an Eppendorf tube and incubated for 30 min. After incubation, it was centrifuged at 4000 G for 5 min. 100 μL supernatant aliquot was diluted with 1 mL PBS buffer, and the absorbance was measured at 567 nm for the sample. % hemolysis is calculated as follows:
Where AX is the absorbance at various serial concentrations A0 absorbance of PBS buffer pH 7.4 AX absorbance of 0.2% Triton X control equivalent to 100%

Row | Compound | MIC MRSA ATCC BAA-1556 [1] [µg/mL] | MIC S. aureus ATCC 29213 [2] [µg/mL] | MIC P. aeruginosa ATCC 27883 [3] [µg/mL] | MIC E. coli ATCC 25922 [4] [µg/mL] | HC50 at 0.5 h [5] [µg/mL]
1 | N=C(N)NCCC[C@@H](N)C(=O)N[C@@H](CCCNC(=N)N)C(=O)N[C@H](CCCNC(=N)N)C(=O)N[C@@H](CCCNC(=N)N)C(=O)N[C@@H](Cc1c[nH]c2ccccc12)C(=O)N[C@H](Cc1ccc2ccccc2c1)C(=O)N[C@H](Cc1ccc2ccccc2c1)C(=O)O [IFX-110-1] (H-[dR]R[dR]RW[d2Nal][d2Nal]-OH) | 3.1 (≈ 2.53 µM) | 3.1 (≈ 2.53 µM) | 25 (≈ 20.4 µM) | 25 (≈ 20.4 µM) | 330
2 | N=C(N)NCCC[C@@H]1NC(=O)[C@H](CCCNC(=N)N)NC(=O)[C@H](CCCNC(=N)N)NC(=O)[C@@H](CCCNC(=N)N)NC(=O)[C@H](Cc2ccc3ccccc3c2)NC(=O)[C@H](Cc2ccc3ccccc3c2)NC(=O)[C@H](Cc2c[nH]c3ccccc23)NC1=O [IFX-108, c[arg-Arg-Arg-Arg-Trp-NaI-NaI]] (cyclo([2Nal][2Nal][dR]RRRW)) | 1.5 (≈ 1.24 µM) | 1.5 (≈ 1.24 µM) | 6.2 (≈ 5.14 µM) | 12.5 (≈ 10.4 µM) | 350
3 | NCCCC[C@@H]1NC(=O)[C@H](CCCCN)NC(=O)[C@H](CCCCN)NC(=O)[C@@H](Cc2ccc3ccccc3c2)NC(=O)[C@@H](Cc2ccc3ccccc3c2)NC(=O)[C@H](Cc2c[nH]c3ccccc23)NC(=O)[C@H](CCCCN)NC1=O [IFX-127, c[Lys-Lys-Lys-Lys-Trp-naI-naI]] (cyclo(KKKKW[d2Nal][d2Nal])) | 6.2 (≈ 5.67 µM) | 6.2 (≈ 5.67 µM) | 128 (≈ 117 µM) | 64 (≈ 58.5 µM) | 540
4 | NCCCC[C@H]1NC(=O)[C@@H](CCCCN)NC(=O)[C@@H](CCCCN)NC(=O)[C@@H](Cc2ccc3ccccc3c2)NC(=O)[C@@H](Cc2ccc3ccccc3c2)NC(=O)[C@@H](Cc2c[nH]c3ccccc23)NC(=O)[C@@H](CCCCN)NC(=O)[C@@H](CCCCN)NC1=O [IFX-133, c[lys-lys-lys-lys-lys-trp-naI-naI]] (cyclo([d2Nal][d2Nal][dK][dK][dK][dK][dK][dW])) | 6.2 (≈ 5.08 µM) | 6.2 (≈ 5.08 µM) | 128 (≈ 105 µM) | 128 (≈ 105 µM) | 580
5 | N=C(N)NCCC[C@@H]1NC(=O)[C@H](CCCNC(=N)N)NC(=O)[C@H](CCCNC(=N)N)NC(=O)[C@H](CCCNC(=N)N)NC(=O)[C@@H](Cc2ccc3ccccc3c2)NC(=O)[C@H](Cc2ccc3ccccc3c2)NC(=O)[C@H](Cc2c[nH]c3ccccc23)NC1=O [IFX-102, c[Arg-Arg-Arg-Arg-Trp-NaI-naI]] (cyclo([2Nal][d2Nal]RRRRW)) | 3.1 (≈ 2.57 µM) | 3.1 (≈ 2.57 µM) | 25 (≈ 20.7 µM) | 12.5 (≈ 10.4 µM) | 200
6 | N=C(N)NCCC[C@@H](N)C(=O)N[C@H](CCCNC(=N)N)C(=O)N[C@H](CCCNC(=N)N)C(=O)N[C@H](CCCNC(=N)N)C(=O)N[C@@H](C(=O)N[C@@H](C(=O)N[C@@H](C(=O)O)C(c1ccccc1)c1ccccc1)C(c1ccccc1)c1ccccc1)C(c1ccccc1)c1ccccc1 [IFX-067-1] (H-[dR][dR][dR][dR][dDip][dDip][dDip]-OH) | 3.1 (≈ 2.36 µM) | 3.1 (≈ 2.36 µM) | 12.5 (≈ 9.52 µM) | 6.2 (≈ 4.72 µM) | 390
7 | N=C(N)NCCC[C@H](NC(=O)[C@H](CCCNC(=N)N)NC(=O)[C@@H](N)CCCNC(=N)N)C(=O)N[C@@H](CCCNC(=N)N)C(=O)N[C@@H](C(=O)N[C@@H](C(=O)N[C@@H](C(=O)O)C(c1ccccc1)c1ccccc1)C(c1ccccc1)c1ccccc1)C(c1ccccc1)c1ccccc1 [IFX-072-1] (H-RRRR[dDip][dDip][dDip]-OH) | 6.2 (≈ 4.72 µM) | 3.1 (≈ 2.36 µM) | 12.5 (≈ 9.52 µM) | 6.2 (≈ 4.72 µM) | 470
8 | N=C(N)NCCC[C@@H](N)C(=O)N[C@@H](CCCNC(=N)N)C(=O)N[C@H](CCCNC(=N)N)C(=O)N[C@@H](CCCNC(=N)N)C(=O)N[C@@H](C(=O)N[C@@H](C(=O)N[C@@H](C(=O)O)C(c1ccccc1)c1ccccc1)C(c1ccccc1)c1ccccc1)C(c1ccccc1)c1ccccc1 [IFX-068-1] (H-[dR]R[dR]R[dDip][dDip][dDip]-OH) | 6.2 (≈ 4.72 µM) | 3.1 (≈ 2.36 µM) | 25 (≈ 19 µM) | 12.5 (≈ 9.52 µM) | 355
9 | N=C(N)NCCC[C@@H]1NC(=O)[C@H](CCCNC(=N)N)NC(=O)[C@@H](CCCNC(=N)N)NC(=O)[C@H](CCCNC(=N)N)NC(=O)[C@H](Cc2ccc3ccccc3c2)NC(=O)[C@H](Cc2ccc3ccccc3c2)NC(=O)[C@H](Cc2c[nH]c3ccccc23)NC1=O [IFX-107, c[Arg-arg-Arg-Arg-Trp-NaI-NaI]] (cyclo([2Nal][2Nal]R[dR]RRW)) | 1.5 (≈ 1.24 µM) | 1.5 (≈ 1.24 µM) | 6.2 (≈ 5.14 µM) | 12.5 (≈ 10.4 µM) | 175
